# Results published in paper PMC7345083, “Vancomycin-Lipopeptide Conjugates with High Antimicrobial Activity on Vancomycin-Resistant Enterococci” (Pharmaceuticals, 2020).
# System: Enterococcus faecium UL602570 (vanA, clinical isolate)
# Format: cell-based
# Conditions: UL602570 (vanA, clinical isolate, 18 h)
# Description: The minimum inhibitory concentration (MIC) was determined by microdilution following the EUCAST and CLSI guidelines via the broth microdilution assay on a 96-well plate. Substances were dissolved in saline solution (0.9%) at a concentration equimolar to 1.28 mg/mL vancomycin. With an increasing hydrophobicity, some substances had to be pre-dissolved in DMSO. The final concentration of DMSO remained below 1.5% and was compared to the DMSO control (no antimicrobial effect was observed up to the highest concentration tested (10%)). All substances were serially diluted on the 96-well plate using Mueller-Hinton-Broth II (cation adjusted). Vancomycin was always used as a control. For bacterial loading, an overnight culture of the referring strain was taken and adjusted to a turbidity corresponding to 10^8 cfu/mL. The bacterial suspension was further diluted to load a bacterial number of 10^6 cfu/mL on the 96-well plate and incubate it for 18 h at 35 ± 1 °C, as described before. MIC was defined as the lowest concentration without visible growth.
SMILES,MIC median [µg/mL],MIC range [µg/mL]
CCCCCC(=O)N[C@@H](CCCNC(=N)N)C(=O)N[C@@H](CCCNC(=N)N)C(=O)N[C@@H](CCCNC(=N)N)C(=O)N[C@@H](CSC1CC(=O)N(CC2CCC(C(=O)NCCNC(=O)[C@H]3NC(=O)[C@H]4NC(=O)[C@H](NC(=O)[C@@H]5NC(=O)[C@H](CC(N)=O)NC(=O)[C@H](NC(=O)[C@@H](CC(C)C)NC)[C@H](O)c6ccc(c(Cl)c6)Oc6cc5cc(c6O[C@@H]5O[C@H](CO)[C@@H](O)[C@H](O)[C@H]5O[C@H]5C[C@](C)(N)[C@H](O)[C@H](C)O5)Oc5ccc(cc5Cl)[C@H]4O)c4ccc(O)c(c4)-c4c(O)cc(O)cc43)CC2)C1=O)C(N)=O (stereo partly drawn) [VC-R3C-C6],106.00,
CCCCCCCC(=O)N[C@@H](CCCNC(=N)N)C(=O)N[C@@H](CCCNC(=N)N)C(=O)N[C@@H](CCCNC(=N)N)C(=O)N[C@@H](CSC1CC(=O)N(CC2CCC(C(=O)NCCNC(=O)[C@H]3NC(=O)[C@H]4NC(=O)[C@H](NC(=O)[C@@H]5NC(=O)[C@H](CC(N)=O)NC(=O)[C@H](NC(=O)[C@@H](CC(C)C)NC)[C@H](O)c6ccc(c(Cl)c6)Oc6cc5cc(c6O[C@@H]5O[C@H](CO)[C@@H](O)[C@H](O)[C@H]5O[C@H]5C[C@](C)(N)[C@H](O)[C@H](C)O5)Oc5ccc(cc5Cl)[C@H]4O)c4ccc(O)c(c4)-c4c(O)cc(O)cc43)CC2)C1=O)C(N)=O (stereo partly drawn) [VC-R3C-C8],9.54,9.54 to 19.08
CCCCCCCCCC(=O)N[C@@H](CCCNC(=N)N)C(=O)N[C@@H](CCCNC(=N)N)C(=O)N[C@@H](CCCNC(=N)N)C(=O)N[C@@H](CSC1CC(=O)N(CC2CCC(C(=O)NCCNC(=O)[C@H]3NC(=O)[C@H]4NC(=O)[C@H](NC(=O)[C@@H]5NC(=O)[C@H](CC(N)=O)NC(=O)[C@H](NC(=O)[C@@H](CC(C)C)NC)[C@H](O)c6ccc(c(Cl)c6)Oc6cc5cc(c6O[C@@H]5O[C@H](CO)[C@@H](O)[C@H](O)[C@H]5O[C@H]5C[C@](C)(N)[C@H](O)[C@H](C)O5)Oc5ccc(cc5Cl)[C@H]4O)c4ccc(O)c(c4)-c4c(O)cc(O)cc43)CC2)C1=O)C(N)=O (stereo partly drawn) [VC-R3C-C10],4.77,4.77 to 9.53
CCCCCCCCCCCCCC(=O)N[C@@H](CCCNC(=N)N)C(=O)N[C@@H](CCCNC(=N)N)C(=O)N[C@@H](CCCNC(=N)N)C(=O)N[C@@H](CSC1CC(=O)N(CC2CCC(C(=O)NCCNC(=O)[C@H]3NC(=O)[C@H]4NC(=O)[C@H](NC(=O)[C@@H]5NC(=O)[C@H](CC(N)=O)NC(=O)[C@H](NC(=O)[C@@H](CC(C)C)NC)[C@H](O)c6ccc(c(Cl)c6)Oc6cc5cc(c6O[C@@H]5O[C@H](CO)[C@@H](O)[C@H](O)[C@H]5O[C@H]5C[C@](C)(N)[C@H](O)[C@H](C)O5)Oc5ccc(cc5Cl)[C@H]4O)c4ccc(O)c(c4)-c4c(O)cc(O)cc43)CC2)C1=O)C(N)=O (stereo partly drawn) [VC-R3C-C14],2.45,2.45 to 4.91
CCCCCCCCCCCCCCCC(=O)N[C@@H](CCCNC(=N)N)C(=O)N[C@@H](CCCNC(=N)N)C(=O)N[C@@H](CCCNC(=N)N)C(=O)N[C@@H](CSC1CC(=O)N(CC2CCC(C(=O)NCCNC(=O)[C@H]3NC(=O)[C@H]4NC(=O)[C@H](NC(=O)[C@@H]5NC(=O)[C@H](CC(N)=O)NC(=O)[C@H](NC(=O)[C@@H](CC(C)C)NC)[C@H](O)c6ccc(c(Cl)c6)Oc6cc5cc(c6O[C@@H]5O[C@H](CO)[C@@H](O)[C@H](O)[C@H]5O[C@H]5C[C@](C)(N)[C@H](O)[C@H](C)O5)Oc5ccc(cc5Cl)[C@H]4O)c4ccc(O)c(c4)-c4c(O)cc(O)cc43)CC2)C1=O)C(N)=O (stereo partly drawn) [VC-R3C-C16],5.00,5.00 to 10.00
